Reference: patent US20260297542A1, “HERBICIDE RESISTANT PLANTS” (SYNGENTA CROP PROTECTION AG, priority 2023, published 2026)
Residue numbers refer to the chain shown, from its start.

What was measured:
Test in all cases: E. coli hemG growth inhibition by herbicide, AtPPO1 variant
Type in all cases: cell-based
Conditions in all cases: read-out: percentage growth inhibition
AtPPO1 Y426L = target: T1, AtPPO1 Y426L (Arabidopsis thaliana, UniProt P55826, Y426L)
T1 construct: expressed in transfected cells; host or cells: E. coli BL21(DE3) hemG (pET24a, T7 promoter)
T1 sequence (P55826 35-537 Y426L): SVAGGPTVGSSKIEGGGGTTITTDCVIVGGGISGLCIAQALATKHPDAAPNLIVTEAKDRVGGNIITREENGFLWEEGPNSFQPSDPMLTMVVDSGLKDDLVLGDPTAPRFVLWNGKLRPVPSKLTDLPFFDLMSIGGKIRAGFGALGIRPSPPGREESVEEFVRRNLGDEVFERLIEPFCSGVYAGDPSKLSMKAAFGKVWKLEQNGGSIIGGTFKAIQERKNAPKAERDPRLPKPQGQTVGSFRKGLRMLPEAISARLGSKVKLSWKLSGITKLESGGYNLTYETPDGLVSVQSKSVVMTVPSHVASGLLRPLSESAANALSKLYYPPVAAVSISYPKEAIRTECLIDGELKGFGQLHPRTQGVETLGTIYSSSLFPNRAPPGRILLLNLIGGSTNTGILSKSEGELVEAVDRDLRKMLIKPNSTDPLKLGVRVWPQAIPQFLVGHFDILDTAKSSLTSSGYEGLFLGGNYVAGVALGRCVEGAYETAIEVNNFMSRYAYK
In short: (§1)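 E. coli BL21(DE3) ΔhemG::CmR complemented by AtPPO1 variants (pET24a, T7, E. coli codon-optimised); TB + 0.1 mM IPTG, 1:100 inoculum; 6.25 ppm herbicide 0/E or 0.78 ppm herbicide B vs DMSO; 24 h, 37° C, 250 rpm; OD600 at 24 h → % growth inhibition.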

AtPPO1 C516Q = target: T2, AtPPO1 C516Q (Arabidopsis thaliana, UniProt P55826, C516Q)
T2 construct: expressed in transfected cells; host or cells: E. coli BL21(DE3) hemG, pET24a plasmid
T2 sequence (P55826 35-537 C516Q): T1 sequence (P55826 35-537 Y426L) with L392Y, C482Q
In short: as §1

AtPPO1 K270M = target: T3, AtPPO1 K270M (Arabidopsis thaliana, UniProt P55826, K270M)
T3 construct: expressed in transfected cells; host or cells: E. coli BL21(DE3) hemG, pET24a plasmid
T3 sequence (P55826 35-537 K270M): T1 sequence (P55826 35-537 Y426L) with K236M, L392Y
In short: as §1

AtPPO1 Q272H = target: T4, AtPPO1 Q272H (Arabidopsis thaliana, UniProt P55826, Q272H)
T4 construct: expressed in transfected cells; host or cells: E. coli BL21(DE3) hemG (hemG replaced by CmR), pET24a plasmid
T4 sequence (P55826 35-537 Q272H): T1 sequence (P55826 35-537 Y426L) with Q238H, L392Y
In short: as §1

Row | SMILES | inhibition at 0.78 ppm (AtPPO1 Y426L) | inhibition at 0.78 ppm (AtPPO1 C516Q) | inhibition at 0.78 ppm (AtPPO1 K270M) | inhibition at 0.78 ppm (AtPPO1 Q272H) | inhibition at 6.25 ppm (AtPPO1 Y426L) | inhibition at 6.25 ppm (AtPPO1 C516Q) | inhibition at 6.25 ppm (AtPPO1 K270M) | inhibition at 6.25 ppm (AtPPO1 Q272H)
1 | C#CCN1C(=O)C(F)(F)Oc2cc(F)c(-n3c(=O)n(C)c(=S)n(C)c3=O)cc21 [Herbicide B, trifludimoxazin] | 15% | 18% | 28% | 27% | – | – | – | –
2 | CCOC(=O)[C@]1(C)CC(c2cc(-n3c(=O)n(C)c(=S)n(C)c3=O)c(F)cc2Cl)=NO1 [Herbicide D, ethyl (5S)-3-[2-chloro-5-(3,5-dimethyl-2,6-dioxo-4-thioxo-1,3,5-triazinan-1-yl)-4-fluoro-phenyl]-5-methyl-4H-isoxazole-5-carboxylate] | – | – | – | – | 25% | 28% | 23% | 28%
3 | CC(C)N(C)S(=O)(=O)NC(=O)c1cc(-n2c(=O)cc(C(F)(F)F)n(C)c2=O)c(F)cc1Cl [Herbicide E, saflufenacil] | – | – | – | – | 12% | 51% | 29% | 64%
